From patent publication US20260115185A1, “QUINOLINE DERIVATIVES WHICH ACT AS KAPPA-OPIOID RECEPTOR ANTAGONISTS” (The Scripps Research Institute, priority 2023, published 2026) come the findings set out here.

Assay [1] deals with T1, kappa opioid receptor (KOR) (Homo sapiens, UniProt P41145).
T1 construct: host or cells: U2OS (Tango OPRK1-bla U2OS)
Briefly: OPRKappa 1 Tango B-Arrestin Assay, antagonist mode (Tango OPRK1-bla U2OS cells, U50488 EC80 challenge). It is filed as cell-based. Conditions: for Selectivity (MOR/KOR): Kappa selectivity, MOR IC50 / KOR IC50; for IC50: antagonist mode, Tango OPRK1-bla U2OS cells, 6 nM U50488 challenge. The text has this: OPRKappa 1 Tango B-Arrestin Assay Protocol-Antagonist Mode. […] The assay uses Tango OPRK1-bla U2OS cells which express OPRK1 linked to a GAL4-VP16 transcription factor via a TEV protease site. The cells also express a β-arrestin/TEV protease fusion protein and a β-lactamase (BLA) reporter gene under the control of a UAS response element. Stimulation of the OPRK1 receptor by agonist causes migration of the β-arrestin fusion protein to the GPCR, and through proteolysis liberates GAL4-VP16 from the receptor. The liberated VP16-GAL4 migrates to the nucleus, where it induces transcription of the BLA gene. BLA expression is monitored by measuring fluorescence resonance energy transfer (FRET) of a cleavable, fluorogenic, cell-permeable BLA substrate. As designed, test compounds that are OPRK1 antagonists inhibit agonist activation and migration of the fusion protein, thus preventing proteolysis of GAL4-VP16 and BLA transcription, leading to no increase in well FRET. Compounds were tested in quadruplicate using a 10-point, 1:3 dilution series starting at a nominal concentration of 10 micromolar.
The Tango OPRK1-U20S Dividing cell line was routinely cultured in 150 mm dishes at 37C, 5% CO2 and 95% relative humidity (RH).
On Day 1 of the assay, 16,000 cells in 10 μL of assay media (DMEM-Glutamax—with Sodium Pyruvate, 10% fetal bovine serum stripped with charcoal-dextran (CDS), 25 mM HEPES, 0.1 mM non-essential amino acids, antibiotic mix (penicillin streptomycin)) were seeded into each well of a 384 Greiner 788092 black low profile, clear bottom, low volume plate, and incubated 16-24 hours at 37° C., 5% CO2 and 95% (RH).
On Day 2, 50 nL of test compound in DMSO was added to the appropriate wells and plates were incubated for 30 min at 37° C. 5% CO2 and 95% (RH). Next was added 0.65 μL of commercially available U50488 OPRK1 agonist or DMSO in assay media: this EC80 Challenge consists of 0.6 μL of 111 nM U50488 to yield a final assay concentration of 6 nM). After incubation for 4 hours at 37° C., 5% CO2 and 95% (RH), 2.5 μL of LiveBLazer™FRET B/G (CCF4-AM) Mix (Soln.'s A,B,C,&D) was added to each well and incubated at room temperature in the dark for 2 hours. Well fluorescence was measured on Perkin Elmer's Envision using an Excitation filter 409 nm, Emission filters at 460 nm and […], bottom read.
(§1) The Percent Inhibition was calculated from the median ratio as follows:
• Tango™OPRK1-bla U20S Cells (Invitrogen K1576) • McCoy's 5A Medium, (Invitrogen 16600-082) • Dialyzed Fetal Bovine Serum, (Invitrogen 26400-036) • Non Essential Amino Acids 100× (Invitrogen part 11140-050) • HEPES (pH 7.3) 1M, (Invitrogen 15630-080) • Sodium Pyruvate 100× (Invitrogen 11360-070) • Penicillin Streptomycin, (Invitrogen 15640) • Trypsin 0.25% EDTA (Invitrogen 25200056) • DPBS without Calcium/Magnesium (Invitrogen 14190-136) • DMEM, High Glucose, GlutaMAX (Invitrogen 10569-010) • Fetal Bovine Serum, Charcoal Stripped (Invitrogen 12676-011) • DMSO Dry (Sigma D2650) • U50488 OPRK1 Agonist MW410.29 (Tocris 67198-19-0) • GNTI dihydrochloride OPRK1 Antagonist MW571.5 (Tocris 1282) • Nor-Binaltorphimine dihydrochloridc MW770.75 (Tocris 0347)
LiveBLAzere™-FRET/BG Loading Mix: (Invitrogen K1030 (5 mg)), composed of Solutions A, B, C, and D: • Solution A (6 μL): LiveBLAzer™-FRET/BG Substrate (CCF4-AM) • Solution B (60 μL) • Solution C (904 μL) • Solution C (must add 250 μl of 1N NaOH to 45 mL of Solution C prior to use) • Solution D (30 μL) [Probinicid] (Sigma P8161) make 200 mM stock in NaOH—H2O.

The next assay concerns the target T2, mu opioid receptor (MOR) (Homo sapiens, UniProt P35372).
T2 construct: host or cells: U2OS (Discover X OPRMu1-U2OS, PathHunter)
The assay can be described thus: OPRMu1 Discover X β-arrestin Assay, antagonist mode (U2OS cells, DAMGO EC80 challenge). It is filed as cell-based.
From the text: OPRMu1 Discover X—β-arrestin Assay—Antagonist Mode. […] This assay evaluates the OPRMu1 activation in membrane recruitment of β-arrestin. In addition, the assay evaluates GPCR-β-arrestin proximity using low affinity fragment complementation of beta-galactosidase (beta-gal). The assay employs U20S cells, which express OPRMu1 fused to the complementary beta-gal fragment (enzyme acceptor). As designed, compounds that act as antagonists will prevent receptor activation resulting in reduced well luminescence. Compounds were tested in quadruplicate using a 10-point, 1:3 dilution series starting at a nominal concentration of 10 micromolar.
The Discover X OPRMu1-U20S cell line was cultured in 150 mm dishes at 37° C., 5% CO2 and 95% relative humidity (RH).
On Day 1 of the assay, 5000 cells in 20 μL of assay buffer (Discover X's Cell Plating Reagent 5) were seeded into each well of a 384 Corning 3570 standard white plate, and incubated 16-24 hours at 37° C., 5% CO2 and 95% RH.
On Day 2, 100 nL of test compound in DMSO were added to the appropriate wells and the plates were then incubated for 30 min at 37° C. 5% CO2 and 95% RH. Next, 2.2 μL of DAMGO OPRMu1 agonist (commercially available) or DMSO in assay media. (The EC80 Challenge consists of 1.8 μL of 3.7 μM DAMGO, 0.4 μL of Assay Buffer, with a final assay concentration of 303 nM). After incubation for 3 hours at 37° C. 5% CO2, and 95% RH, 10 μL of Path Hunter Detection Mix was added to each well, and the plate was then incubated at room temperature in the dark for 1 hour. Well luminescence was measured on Perkin Elmer's Envision.
as §1
• DMEM Medium, (Invitrogen 11965) • F12 Medium, (Invitrogen 11765) • Heat Inactivated Fetal Bovine Serum, (Invitrogen 10082147) • Non Essential Amino Acids 100× (Invitrogen 11140-050) • HEPES (pH 7.3) 1M, (Invitrogen 15630-080) • Sodium Pyruvate 100× (Invitrogen 11360-070) • Penicillin Streptomycin, (Invitrogen 15640) • Trypsin 0.25% EDTA (Invitrogen 25200056) • DPBS without Calcium/Magnesium (Invitrogen 14190-136) • DMSO Dry (Sigma D2650) • DAMGO OPRMu1 Agonist MW513.19 (Sigma E7384-5MG) • B-Funaltrexamine Hydrochloride OPRM1 Antagonist MW (SIGMA 0003-2MG) • PathHunter Cell Plating 5 Reagent (Discover X 93-0563R5A) • Corning 3750 Standard 384 well white plate with lid.
PathHunter Detection Mix (DiscoverX 93-0001): 1 part Galacton Star/5 parts Emerald II/19 parts PH Cell Assay Buffer.

T1 sequence (P41145 whole entry): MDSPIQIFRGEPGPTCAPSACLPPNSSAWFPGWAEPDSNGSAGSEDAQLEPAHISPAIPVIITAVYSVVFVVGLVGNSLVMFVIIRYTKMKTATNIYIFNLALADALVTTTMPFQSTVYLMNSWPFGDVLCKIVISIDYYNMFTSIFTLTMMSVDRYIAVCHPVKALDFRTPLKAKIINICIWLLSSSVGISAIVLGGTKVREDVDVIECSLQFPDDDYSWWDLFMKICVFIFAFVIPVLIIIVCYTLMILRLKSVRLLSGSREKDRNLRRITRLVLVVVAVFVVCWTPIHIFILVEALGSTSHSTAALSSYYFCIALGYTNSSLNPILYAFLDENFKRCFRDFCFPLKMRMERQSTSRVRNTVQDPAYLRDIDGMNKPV
T2 sequence (P35372 whole entry): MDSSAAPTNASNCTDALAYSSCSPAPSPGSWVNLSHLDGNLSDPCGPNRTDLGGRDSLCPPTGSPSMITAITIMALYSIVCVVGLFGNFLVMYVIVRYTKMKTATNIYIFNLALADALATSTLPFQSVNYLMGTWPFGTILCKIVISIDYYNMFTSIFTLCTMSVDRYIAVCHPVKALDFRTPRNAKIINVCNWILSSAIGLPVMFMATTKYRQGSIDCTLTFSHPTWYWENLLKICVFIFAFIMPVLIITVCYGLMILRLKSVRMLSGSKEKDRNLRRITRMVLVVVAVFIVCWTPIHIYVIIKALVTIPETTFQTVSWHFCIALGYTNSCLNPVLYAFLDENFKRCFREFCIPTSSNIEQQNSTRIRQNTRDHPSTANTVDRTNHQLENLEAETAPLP

As usually defined, the IC50 is the midpoint of a concentration-inhibition curve. With `CCc1cc(-c2ccnn2C)c2nc(N3CCC(N[C@@H]4CCOC[C@H]4F)CC3)c(-c3ccn(C)n3)c(C)c2c1` [Compound 22, 1-(6-ethyl-4-methyl-3-(1-methyl-1H-pyrazol-3-yl)-8-(1-methyl-1H-pyrazol-5-yl)quinolin-2-yl)-N-((3S,4R)-3-fluorotetrahydro-2H-pyran-4-yl)piperidin-4-amine], in assay [1], the “Selectivity (MOR/KOR)” value was “++ (between 10- and 100-fold selectivity)”; the IC50 was 1 to 10 nM. In addition, the IC50 against mu opioid receptor (MOR) is 100 to 1000 nM.

Take `CCc1cc(-c2ccnn2C)c2nc(N3CCC(N)CC3)c(-c3ccn(C)n3)c(C)c2c1` [Compound 23, 1-(6-ethyl-4-methyl-3-(1-methyl-1H-pyrazol-3-yl)-8-(1-methyl-1H-pyrazol-5-yl)quinolin-2-yl)piperidin-4-amine]: in assay [1], the “Selectivity (MOR/KOR)” value was “+ (less than 10-fold selectivity)” and the IC50 was at least 100 nM. On mu opioid receptor (MOR), this molecule returned an IC50 above 1000 nM.

With `CCc1cc(-c2ccnn2C)c2nc(N3CCNC4CC43)c(-c3ccn(C)n3)c(C)c2c1` (stereo not drawn) [Compound 24, 2-(2,5-diazabicyclo[4.1.0]heptan-2-yl)-6-ethyl-4-methyl-3-(1-methyl-1H-pyrazol-3-yl)-8-(1-methyl-1H-pyrazol-5-yl)quinoline], in assay [1], the “Selectivity (MOR/KOR)” value was “+ (less than 10-fold selectivity)” and the IC50 was at least 100 nM. The same molecule registered a half-inhibitory concentration (IC50) against mu opioid receptor (MOR) above 1000 nM.

In the case of `CCc1cc(F)c2nc(N3CCN(CC(C)C)C[C@H]3C)c(-c3nc(C)no3)c(C)c2c1` [Compound 25], in assay [1], the “Selectivity (MOR/KOR)” value is “+++ (between 100- to 1000-fold selective)” and the IC50 was below 1 nM. Moreover, the IC50 at mu opioid receptor (MOR) is above 1000 nM.

On to `CCc1cc(F)c2nc(N3CCN(C4CCOCC4)C[C@@H]3C)c(-c3nc(C)no3)c(C)c2c1` [Compound 27, (S)-5-(6-ethyl-8-fluoro-4-methyl-2-(2-methyl-4-(tetrahydro-2H-pyran-4-yl)piperazin-1-yl)quinolin-3-yl)-3-methyl-1,2,4-oxadiazole], for which, in assay [1], the “Selectivity (MOR/KOR)” value is “++ (between 10- and 100-fold selectivity)”; the IC50 was at least 100 nM. At mu opioid receptor (MOR), this molecule showed an IC50 above 1000 nM.

For the molecule `CCc1cc(F)c2nc(N3CCN(C[C@@H]4CCCO4)C[C@H]3C)c(-c3nc(C)no3)c(C)c2c1` [Compound 29], the “Selectivity (MOR/KOR)” value in assay [1] was “+++ (between 100- to 1000-fold selective)”. In addition, the IC50 in assay [1] was 1 to 10 nM; at mu opioid receptor (MOR) it was above 1000 nM.

Regarding `CCc1cc(F)c2nc(N3CCN(C[C@H]4CCCO4)C[C@H]3C)c(-c3nc(C)no3)c(C)c2c1` [Compound 30], in assay [1], the “Selectivity (MOR/KOR)” value is listed as “+++ (between 100- to 1000-fold selective)” and the IC50 fell in the range of 1 to 10 nM. The same molecule showed an IC50 against mu opioid receptor (MOR) above 1000 nM.

On to `CCc1cc(F)c2nc(N3CCN([C@@H]4CCOC4)C[C@H]3C)c(-c3nc(C)no3)c(C)c2c1` [Compound 31], for which, in assay [1], the “Selectivity (MOR/KOR)” value is “++ (between 10- and 100-fold selectivity)”. The IC50 in assay [1] was at least 100 nM; at mu opioid receptor (MOR) it was above 1000 nM.

In the case of `CCc1cc(F)c2nc(N3CCN([C@H]4CCOC4)C[C@H]3C)c(-c3nc(C)no3)c(C)c2c1` [Compound 33], in assay [1], the “Selectivity (MOR/KOR)” value is given as “+++ (between 100- to 1000-fold selective)”. Moreover, the IC50 in assay [1] was 1 to 10 nM; against mu opioid receptor (MOR) it was above 1000 nM.

Turning to `CCc1cc(F)c2nc(N3CCN(CC4CCOCC4)C[C@H]3CC)c(-c3nc(C)no3)c(C)c2c1` [Compound 34, (R)-5-(6-ethyl-2-(2-ethyl-4-((tetrahydro-2H-pyran-4-yl)methyl)piperazin-1-yl)-8-fluoro-4-methylquinolin-3-yl)-3-methyl-1,2,4-oxadiazole], the “Selectivity (MOR/KOR)” value in assay [1] is listed as “+ (less than 10-fold selectivity)”. Moreover, the IC50 in assay [1] fell in the range of 10 to 100 nM; at mu opioid receptor (MOR), 100 to 1000 nM.

Consider `CCc1cc(F)c2nc(N3CCN(C[C@@H]4CCCO4)C[C@H]3CC)c(-c3nc(C)no3)c(C)c2c1` [Compound 35], for which, in assay [1], the “Selectivity (MOR/KOR)” value was “++ (between 10- and 100-fold selectivity)”; the IC50 is 10 to 100 nM. The same molecule came in with an IC50 on mu opioid receptor (MOR) above 1000 nM.

Regarding `CCc1cc(F)c2nc(N3CCN(C[C@H]4CCCO4)C[C@H]3CC)c(-c3nc(C)no3)c(C)c2c1` [Compound 36], in assay [1], the “Selectivity (MOR/KOR)” value is “++ (between 10- and 100-fold selectivity)”; the half-inhibitory concentration (IC50) fell in the range of 10 to 100 nM. At mu opioid receptor (MOR), this molecule had an IC50 above 1000 nM.

In the case of `COc1cc(F)c2nc(N3CCN(CC4CCOCC4)C[C@H]3C)c(-c3nc(C)no3)c(C)c2c1` [Compound 37, (R)-5-(8-fluoro-6-methoxy-4-methyl-2-(2-methyl-4-((tetrahydro-2H-pyran-4-yl)methyl)piperazin-1-yl)quinolin-3-yl)-3-methyl-1,2,4-oxadiazole], the “Selectivity (MOR/KOR)” value in assay [1] was “++ (between 10- and 100-fold selectivity)”. For the same molecule, the results for the IC50 (in assay [1]; on mu opioid receptor (MOR)) were at least 100 nM and above 1000 nM, respectively.

On to `CCc1cc(F)c2nc(N3CCN(CC4CCOCC4)[C@@H](C)C3)c(-c3nc(C)no3)c(C)c2c1` [Compound 38, (S)-5-(6-ethyl-8-fluoro-4-methyl-2-(3-methyl-4-((tetrahydro-2H-pyran-4-yl)methyl)piperazin-1-yl)quinolin-3-yl)-3-methyl-1,2,4-oxadiazole], for which, in assay [1], the “Selectivity (MOR/KOR)” value is “++ (between 10- and 100-fold selectivity)”; the IC50 lay in the range of 10 to 100 nM. The molecule further registered a half-inhibitory concentration (IC50) at mu opioid receptor (MOR) above 1000 nM.
